Where two headings read alike, the source gives them in different places.
Experiments:
Test in all cases: Kinase selectivity, P33-radiolabeled assay
Format in all cases: biochemical
Settings in all cases: 10 μM ATP
SGK1 = target: T1, SGK1 (Homo sapiens, UniProt O00141)
T1 construct: purchased Reaction Biology Corp
T1 sequence (O00141 1-431): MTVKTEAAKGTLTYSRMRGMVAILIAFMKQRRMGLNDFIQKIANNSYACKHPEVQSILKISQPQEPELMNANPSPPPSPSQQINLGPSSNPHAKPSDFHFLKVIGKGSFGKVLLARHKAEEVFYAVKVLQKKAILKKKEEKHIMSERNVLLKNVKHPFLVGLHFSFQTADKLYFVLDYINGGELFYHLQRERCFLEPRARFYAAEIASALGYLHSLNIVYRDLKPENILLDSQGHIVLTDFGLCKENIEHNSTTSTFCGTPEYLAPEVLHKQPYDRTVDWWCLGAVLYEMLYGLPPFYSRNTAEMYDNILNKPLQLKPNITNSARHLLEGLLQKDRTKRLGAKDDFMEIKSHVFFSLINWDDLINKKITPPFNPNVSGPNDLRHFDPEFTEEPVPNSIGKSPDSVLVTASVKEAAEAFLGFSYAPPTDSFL
Method in brief: (§1)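 ATP at 10 μM; test article at 10 μM, single point, two replicates. Output is activity as % of DMSO.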

MAPKAPK2 = target: T2, MAPKAPK2 (Homo sapiens, UniProt P49137)
T2 construct: purchased Reaction Biology Corp
Method in brief: as §1

ERK5/MAPK7 = target: T3, ERK5/MAPK7 (Homo sapiens, UniProt Q13164)
T3 construct: purchased Reaction Biology Corp
T3 sequence (Q13164 whole entry): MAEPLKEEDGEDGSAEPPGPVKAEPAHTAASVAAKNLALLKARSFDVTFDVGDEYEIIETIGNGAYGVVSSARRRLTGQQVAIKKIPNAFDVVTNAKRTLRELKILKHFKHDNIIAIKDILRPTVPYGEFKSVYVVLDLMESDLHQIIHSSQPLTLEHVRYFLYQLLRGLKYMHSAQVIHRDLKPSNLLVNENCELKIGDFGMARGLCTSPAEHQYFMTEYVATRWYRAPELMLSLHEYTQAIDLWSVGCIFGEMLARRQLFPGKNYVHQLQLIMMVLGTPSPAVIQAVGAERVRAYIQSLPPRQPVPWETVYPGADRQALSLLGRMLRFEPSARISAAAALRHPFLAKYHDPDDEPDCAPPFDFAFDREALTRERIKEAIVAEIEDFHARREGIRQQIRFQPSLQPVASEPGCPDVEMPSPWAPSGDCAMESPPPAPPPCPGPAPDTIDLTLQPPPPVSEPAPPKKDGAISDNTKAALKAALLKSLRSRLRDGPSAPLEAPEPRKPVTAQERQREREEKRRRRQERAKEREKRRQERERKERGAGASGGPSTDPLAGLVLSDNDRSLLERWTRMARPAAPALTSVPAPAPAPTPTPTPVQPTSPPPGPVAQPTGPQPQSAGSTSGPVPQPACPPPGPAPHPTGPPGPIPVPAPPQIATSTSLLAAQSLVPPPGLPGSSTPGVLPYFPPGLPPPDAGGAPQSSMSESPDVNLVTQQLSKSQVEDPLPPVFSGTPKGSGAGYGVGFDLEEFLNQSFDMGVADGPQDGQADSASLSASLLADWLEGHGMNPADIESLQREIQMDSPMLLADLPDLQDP
Method in brief: as §1

DMPK2 = target: T4, DMPK2 (Homo sapiens, UniProt Q6DT37)
T4 construct: purchased Reaction Biology Corp
T4 sequence (Q6DT37 whole entry): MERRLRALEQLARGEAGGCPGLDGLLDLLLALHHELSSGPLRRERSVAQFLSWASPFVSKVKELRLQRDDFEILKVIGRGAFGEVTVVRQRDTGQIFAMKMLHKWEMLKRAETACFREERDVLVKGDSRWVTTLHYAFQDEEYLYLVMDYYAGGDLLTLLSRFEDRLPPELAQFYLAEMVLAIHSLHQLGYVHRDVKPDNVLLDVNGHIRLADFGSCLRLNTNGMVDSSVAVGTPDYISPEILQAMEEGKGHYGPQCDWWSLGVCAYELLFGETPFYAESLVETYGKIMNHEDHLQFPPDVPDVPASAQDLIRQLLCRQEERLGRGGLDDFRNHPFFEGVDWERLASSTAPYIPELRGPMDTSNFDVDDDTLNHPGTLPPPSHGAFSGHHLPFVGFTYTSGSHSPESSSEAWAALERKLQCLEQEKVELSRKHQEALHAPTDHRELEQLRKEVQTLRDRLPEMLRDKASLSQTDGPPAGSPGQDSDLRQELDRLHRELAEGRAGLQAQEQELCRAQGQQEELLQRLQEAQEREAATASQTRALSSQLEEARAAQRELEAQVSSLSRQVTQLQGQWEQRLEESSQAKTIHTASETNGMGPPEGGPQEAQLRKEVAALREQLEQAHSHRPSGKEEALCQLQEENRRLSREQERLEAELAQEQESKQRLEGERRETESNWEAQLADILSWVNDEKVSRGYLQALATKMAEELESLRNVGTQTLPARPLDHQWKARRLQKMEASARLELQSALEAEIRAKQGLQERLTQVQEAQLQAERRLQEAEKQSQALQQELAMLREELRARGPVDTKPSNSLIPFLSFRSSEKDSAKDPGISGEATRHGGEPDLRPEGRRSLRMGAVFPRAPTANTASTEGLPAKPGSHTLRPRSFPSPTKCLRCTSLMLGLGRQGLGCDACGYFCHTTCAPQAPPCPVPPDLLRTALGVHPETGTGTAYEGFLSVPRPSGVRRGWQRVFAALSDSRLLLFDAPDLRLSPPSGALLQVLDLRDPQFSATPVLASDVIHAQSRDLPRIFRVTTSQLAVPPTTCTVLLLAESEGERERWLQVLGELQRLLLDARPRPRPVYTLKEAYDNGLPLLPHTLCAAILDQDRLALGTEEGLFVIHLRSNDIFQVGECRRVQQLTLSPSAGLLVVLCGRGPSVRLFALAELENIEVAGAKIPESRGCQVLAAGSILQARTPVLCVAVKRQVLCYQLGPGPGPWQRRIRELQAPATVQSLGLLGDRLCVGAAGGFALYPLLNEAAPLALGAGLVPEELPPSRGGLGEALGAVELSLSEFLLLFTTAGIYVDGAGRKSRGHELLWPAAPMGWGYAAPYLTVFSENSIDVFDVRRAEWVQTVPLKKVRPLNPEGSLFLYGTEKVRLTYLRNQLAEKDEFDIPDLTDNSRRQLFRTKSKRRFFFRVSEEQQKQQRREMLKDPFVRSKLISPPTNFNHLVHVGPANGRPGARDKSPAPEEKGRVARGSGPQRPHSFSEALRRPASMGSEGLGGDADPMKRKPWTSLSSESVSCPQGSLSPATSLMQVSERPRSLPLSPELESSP
Method in brief: as §1

CDK2/cyclin A = target: T5, CDK2/cyclin A (Homo sapiens, UniProt P24941)
T5 construct: purchased Reaction Biology Corp
Method in brief: as §1

CAMK1g = target: T6, CAMK1g (Homo sapiens, UniProt Q96NX5)
T6 construct: purchased Reaction Biology Corp
T6 sequence (Q96NX5 whole entry): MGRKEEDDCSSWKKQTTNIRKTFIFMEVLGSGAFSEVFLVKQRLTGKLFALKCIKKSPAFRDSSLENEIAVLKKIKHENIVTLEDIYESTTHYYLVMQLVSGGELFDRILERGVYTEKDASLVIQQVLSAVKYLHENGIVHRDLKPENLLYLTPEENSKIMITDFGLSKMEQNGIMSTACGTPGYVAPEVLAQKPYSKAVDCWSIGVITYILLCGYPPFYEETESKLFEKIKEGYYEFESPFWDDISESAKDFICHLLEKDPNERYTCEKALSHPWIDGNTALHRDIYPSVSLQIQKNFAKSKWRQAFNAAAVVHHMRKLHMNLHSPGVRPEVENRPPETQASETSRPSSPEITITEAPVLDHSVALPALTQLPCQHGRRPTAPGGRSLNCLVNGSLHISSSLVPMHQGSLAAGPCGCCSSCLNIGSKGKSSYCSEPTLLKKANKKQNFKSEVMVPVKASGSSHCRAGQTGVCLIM
Method in brief: as §1

TXK = target: T7, TXK (Homo sapiens, UniProt P42681)
T7 construct: purchased Reaction Biology Corp
T7 sequence (P42681 1-527): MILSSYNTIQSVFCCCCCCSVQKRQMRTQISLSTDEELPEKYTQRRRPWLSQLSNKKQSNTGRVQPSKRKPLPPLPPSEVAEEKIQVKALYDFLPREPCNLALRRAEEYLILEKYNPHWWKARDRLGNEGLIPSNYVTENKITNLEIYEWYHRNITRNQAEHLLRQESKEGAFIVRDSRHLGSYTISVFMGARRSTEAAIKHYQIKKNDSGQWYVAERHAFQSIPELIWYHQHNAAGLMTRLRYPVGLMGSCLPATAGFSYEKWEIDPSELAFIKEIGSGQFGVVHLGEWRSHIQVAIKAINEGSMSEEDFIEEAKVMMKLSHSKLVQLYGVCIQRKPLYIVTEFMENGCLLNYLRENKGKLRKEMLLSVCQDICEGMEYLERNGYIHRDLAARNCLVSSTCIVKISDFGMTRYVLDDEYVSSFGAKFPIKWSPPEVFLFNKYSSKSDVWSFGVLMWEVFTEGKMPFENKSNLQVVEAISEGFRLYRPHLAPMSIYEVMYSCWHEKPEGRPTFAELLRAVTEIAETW
Method in brief: as §1

RSK3 = target: T8, RSK3 (Homo sapiens, UniProt Q15349)
T8 construct: purchased Reaction Biology Corp
T8 sequence (Q15349 whole entry): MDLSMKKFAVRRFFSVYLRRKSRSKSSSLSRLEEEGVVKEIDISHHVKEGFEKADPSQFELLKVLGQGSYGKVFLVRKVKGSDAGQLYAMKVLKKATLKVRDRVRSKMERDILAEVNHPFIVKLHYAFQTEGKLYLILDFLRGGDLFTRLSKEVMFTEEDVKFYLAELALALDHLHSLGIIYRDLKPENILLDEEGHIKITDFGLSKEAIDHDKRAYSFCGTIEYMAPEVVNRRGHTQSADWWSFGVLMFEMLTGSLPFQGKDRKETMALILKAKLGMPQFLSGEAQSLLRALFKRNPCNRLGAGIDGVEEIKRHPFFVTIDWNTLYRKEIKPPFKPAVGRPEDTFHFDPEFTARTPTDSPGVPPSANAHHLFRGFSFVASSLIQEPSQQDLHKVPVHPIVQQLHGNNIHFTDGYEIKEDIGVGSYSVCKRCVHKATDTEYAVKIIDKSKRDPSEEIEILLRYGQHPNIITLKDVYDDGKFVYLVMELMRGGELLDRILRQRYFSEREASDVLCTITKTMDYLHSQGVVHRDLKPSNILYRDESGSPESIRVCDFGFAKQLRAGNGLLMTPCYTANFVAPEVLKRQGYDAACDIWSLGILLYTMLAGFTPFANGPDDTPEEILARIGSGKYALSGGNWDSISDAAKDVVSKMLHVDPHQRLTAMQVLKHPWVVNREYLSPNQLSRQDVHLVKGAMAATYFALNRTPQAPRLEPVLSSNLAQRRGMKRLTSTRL
Method in brief: as §1

MLCK2/MYLK2 = target: T9, MLCK2/MYLK2 (Homo sapiens, UniProt Q9H1R3)
T9 construct: purchased Reaction Biology Corp
Method in brief: as §1

ULK3 = target: T10, ULK3 (Homo sapiens, UniProt Q6PHR2)
T10 construct: purchased Reaction Biology Corp
T10 sequence (Q6PHR2 1-472): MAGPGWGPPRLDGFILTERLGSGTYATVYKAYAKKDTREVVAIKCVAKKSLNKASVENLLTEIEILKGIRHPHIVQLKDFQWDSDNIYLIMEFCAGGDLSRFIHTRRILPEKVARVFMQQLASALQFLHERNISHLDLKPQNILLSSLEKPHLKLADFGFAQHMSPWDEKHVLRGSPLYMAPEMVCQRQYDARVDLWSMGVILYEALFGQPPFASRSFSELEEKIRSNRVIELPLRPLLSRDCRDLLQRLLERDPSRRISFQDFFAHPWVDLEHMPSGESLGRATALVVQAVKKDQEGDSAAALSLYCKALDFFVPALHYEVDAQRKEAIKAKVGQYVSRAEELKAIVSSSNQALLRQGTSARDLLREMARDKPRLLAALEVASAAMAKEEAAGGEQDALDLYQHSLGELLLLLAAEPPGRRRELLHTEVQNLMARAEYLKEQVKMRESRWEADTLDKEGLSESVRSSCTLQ
Method in brief: as §1

DAPK1 = target: T11, DAPK1 (Homo sapiens, UniProt P53355)
T11 construct: purchased Reaction Biology Corp
Method in brief: as §1

ROCK1 = target: T12, ROCK1 (Homo sapiens, UniProt Q13464)
T12 construct: purchased Reaction Biology Corp
T12 sequence (Q13464 whole entry): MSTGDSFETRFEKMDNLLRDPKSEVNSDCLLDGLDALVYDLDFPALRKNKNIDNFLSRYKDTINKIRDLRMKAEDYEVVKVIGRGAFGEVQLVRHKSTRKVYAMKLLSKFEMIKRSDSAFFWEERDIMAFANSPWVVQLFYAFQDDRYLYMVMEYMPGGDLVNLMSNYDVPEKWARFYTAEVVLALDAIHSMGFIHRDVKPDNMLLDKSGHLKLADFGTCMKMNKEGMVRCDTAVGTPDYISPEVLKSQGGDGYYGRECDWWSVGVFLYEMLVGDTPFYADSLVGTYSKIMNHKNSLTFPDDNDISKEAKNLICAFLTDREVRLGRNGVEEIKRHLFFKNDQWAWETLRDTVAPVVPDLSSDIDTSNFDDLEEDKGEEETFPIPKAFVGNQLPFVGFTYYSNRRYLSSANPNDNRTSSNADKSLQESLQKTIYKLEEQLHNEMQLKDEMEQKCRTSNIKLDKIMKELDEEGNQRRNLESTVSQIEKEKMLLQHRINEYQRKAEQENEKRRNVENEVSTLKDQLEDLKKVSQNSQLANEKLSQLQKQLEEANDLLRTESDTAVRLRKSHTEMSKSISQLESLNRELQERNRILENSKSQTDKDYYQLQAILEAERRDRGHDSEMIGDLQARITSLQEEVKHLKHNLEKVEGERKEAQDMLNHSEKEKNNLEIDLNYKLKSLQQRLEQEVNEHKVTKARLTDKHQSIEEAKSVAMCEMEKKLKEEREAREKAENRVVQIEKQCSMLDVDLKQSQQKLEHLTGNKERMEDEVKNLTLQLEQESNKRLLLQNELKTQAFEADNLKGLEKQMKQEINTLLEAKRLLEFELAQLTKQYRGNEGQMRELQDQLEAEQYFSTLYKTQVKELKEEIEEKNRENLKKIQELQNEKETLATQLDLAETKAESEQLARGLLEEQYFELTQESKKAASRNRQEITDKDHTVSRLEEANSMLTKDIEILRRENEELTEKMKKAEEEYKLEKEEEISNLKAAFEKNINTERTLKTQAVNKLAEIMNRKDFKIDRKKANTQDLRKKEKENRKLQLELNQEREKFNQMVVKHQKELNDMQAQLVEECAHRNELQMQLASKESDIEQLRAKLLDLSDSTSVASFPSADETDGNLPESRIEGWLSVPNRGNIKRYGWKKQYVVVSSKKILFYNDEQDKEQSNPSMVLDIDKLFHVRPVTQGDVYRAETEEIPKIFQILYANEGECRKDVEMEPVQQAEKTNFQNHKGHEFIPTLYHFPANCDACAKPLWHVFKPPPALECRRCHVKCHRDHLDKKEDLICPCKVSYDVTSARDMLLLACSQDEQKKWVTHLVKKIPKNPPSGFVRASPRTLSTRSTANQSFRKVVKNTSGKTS
Method in brief: as §1

[1] = read-out: % Enzyme Activity (relative to DMSO controls) AVG
[2] = read-out: % Enzyme Activity (relative to DMSO controls) Data 1
[3] = read-out: % Enzyme Activity (relative to DMSO controls) Data 2

Question: What does the source list for CC(C)(C)C(=O)N1N=CC[C@H]1c1ccccc1 [GSK′963]?
Answer: remaining activity at 10 µM (SGK1; [1]): 99.7%; remaining activity at 10 µM (SGK1; [2]): 99%; remaining activity at 10 µM (SGK1; [3]): 100%; remaining activity at 10 µM (MAPKAPK2; [1]): 112%; remaining activity at 10 µM (MAPKAPK2; [2]): 115%; remaining activity at 10 µM (MAPKAPK2; [3]): 109%; remaining activity at 10 µM (ERK5/MAPK7; [1]): 97.8%; remaining activity at 10 µM (ERK5/MAPK7; [2]): 95.5%; remaining activity at 10 µM (ERK5/MAPK7; [3]): 100%; remaining activity at 10 µM (DMPK2; [1]): 139%; remaining activity at 10 µM (DMPK2; [2]): 140%; remaining activity at 10 µM (DMPK2; [3]): 139%; remaining activity at 10 µM (CDK2/cyclin A; [1]): 93.6%; remaining activity at 10 µM (CDK2/cyclin A; [2]): 95.3%; remaining activity at 10 µM (CDK2/cyclin A; [3]): 92%; remaining activity at 10 µM (CAMK1g; [1]): 82.4%; remaining activity at 10 µM (CAMK1g; [2]): 81.8%; remaining activity at 10 µM (CAMK1g; [3]): 83%; remaining activity at 10 µM (TXK; [1]): 96.3%; remaining activity at 10 µM (TXK; [2]): 95.7%; remaining activity at 10 µM (TXK; [3]): 96.8%; remaining activity at 10 µM (RSK3; [1]): 101%; remaining activity at 10 µM (RSK3; [2]): 102%; remaining activity at 10 µM (RSK3; [3]): 99.6%; remaining activity at 10 µM (MLCK2/MYLK2; [1]): 104%; remaining activity at 10 µM (MLCK2/MYLK2; [2]): 106%; remaining activity at 10 µM (MLCK2/MYLK2; [3]): 102%; remaining activity at 10 µM (ULK3; [1]): 91.6%; remaining activity at 10 µM (ULK3; [2]): 92.2%; remaining activity at 10 µM (ULK3; [3]): 90.9%; remaining activity at 10 µM (DAPK1; [1]): 70.8%; remaining activity at 10 µM (DAPK1; [2]): 72.5%; remaining activity at 10 µM (DAPK1; [3]): 69.2%; remaining activity at 10 µM (ROCK1; [1]): 105%; remaining activity at 10 µM (ROCK1; [2]): 103%; remaining activity at 10 µM (ROCK1; [3]): 106%

— publication PMC4979471 (Cell Death Discovery, 2015)
